Drawing on US10246453B2, “Benzenesulfonamide compounds and their use as therapeutic agents” (Xenon Pharmaceuticals Inc., priority 2016, dated 2019), this text covers IC50 for 17 molecules.

The target of one series is NaV1.5 (Homo sapiens (Human), UniProt Q14524). The experiment in a line: Sodium Influx Assay (Flux), NaV1.5. The note with it: read-out: Flux NaV1.5 IC50; Trex HEK293 cells, ANG2 dye; arithmetic mean.
The target in another series is NaV1.1 (Homo sapiens (Human), UniProt P35498). The experiment in a line: Sodium Influx Assay (Flux), NaV1.1. Format: cell-based. The note with it: Trex HEK293 cells, ANG2 dye; arithmetic mean.
The target of a further series is NaV1.6 (Homo sapiens (Human), UniProt Q9UQD0). In words: Sodium Influx Assay (Flux), NaV1.6. The note with it: read-out: Flux NaV1.6 IC50; Trex HEK293 cells, ANG2 dye; arithmetic mean.

Structures can show the parent of a compound that is named as a salt.

Chain of NaV1.5 (Q14524 other isoform, or with tags, fused parts or gaps): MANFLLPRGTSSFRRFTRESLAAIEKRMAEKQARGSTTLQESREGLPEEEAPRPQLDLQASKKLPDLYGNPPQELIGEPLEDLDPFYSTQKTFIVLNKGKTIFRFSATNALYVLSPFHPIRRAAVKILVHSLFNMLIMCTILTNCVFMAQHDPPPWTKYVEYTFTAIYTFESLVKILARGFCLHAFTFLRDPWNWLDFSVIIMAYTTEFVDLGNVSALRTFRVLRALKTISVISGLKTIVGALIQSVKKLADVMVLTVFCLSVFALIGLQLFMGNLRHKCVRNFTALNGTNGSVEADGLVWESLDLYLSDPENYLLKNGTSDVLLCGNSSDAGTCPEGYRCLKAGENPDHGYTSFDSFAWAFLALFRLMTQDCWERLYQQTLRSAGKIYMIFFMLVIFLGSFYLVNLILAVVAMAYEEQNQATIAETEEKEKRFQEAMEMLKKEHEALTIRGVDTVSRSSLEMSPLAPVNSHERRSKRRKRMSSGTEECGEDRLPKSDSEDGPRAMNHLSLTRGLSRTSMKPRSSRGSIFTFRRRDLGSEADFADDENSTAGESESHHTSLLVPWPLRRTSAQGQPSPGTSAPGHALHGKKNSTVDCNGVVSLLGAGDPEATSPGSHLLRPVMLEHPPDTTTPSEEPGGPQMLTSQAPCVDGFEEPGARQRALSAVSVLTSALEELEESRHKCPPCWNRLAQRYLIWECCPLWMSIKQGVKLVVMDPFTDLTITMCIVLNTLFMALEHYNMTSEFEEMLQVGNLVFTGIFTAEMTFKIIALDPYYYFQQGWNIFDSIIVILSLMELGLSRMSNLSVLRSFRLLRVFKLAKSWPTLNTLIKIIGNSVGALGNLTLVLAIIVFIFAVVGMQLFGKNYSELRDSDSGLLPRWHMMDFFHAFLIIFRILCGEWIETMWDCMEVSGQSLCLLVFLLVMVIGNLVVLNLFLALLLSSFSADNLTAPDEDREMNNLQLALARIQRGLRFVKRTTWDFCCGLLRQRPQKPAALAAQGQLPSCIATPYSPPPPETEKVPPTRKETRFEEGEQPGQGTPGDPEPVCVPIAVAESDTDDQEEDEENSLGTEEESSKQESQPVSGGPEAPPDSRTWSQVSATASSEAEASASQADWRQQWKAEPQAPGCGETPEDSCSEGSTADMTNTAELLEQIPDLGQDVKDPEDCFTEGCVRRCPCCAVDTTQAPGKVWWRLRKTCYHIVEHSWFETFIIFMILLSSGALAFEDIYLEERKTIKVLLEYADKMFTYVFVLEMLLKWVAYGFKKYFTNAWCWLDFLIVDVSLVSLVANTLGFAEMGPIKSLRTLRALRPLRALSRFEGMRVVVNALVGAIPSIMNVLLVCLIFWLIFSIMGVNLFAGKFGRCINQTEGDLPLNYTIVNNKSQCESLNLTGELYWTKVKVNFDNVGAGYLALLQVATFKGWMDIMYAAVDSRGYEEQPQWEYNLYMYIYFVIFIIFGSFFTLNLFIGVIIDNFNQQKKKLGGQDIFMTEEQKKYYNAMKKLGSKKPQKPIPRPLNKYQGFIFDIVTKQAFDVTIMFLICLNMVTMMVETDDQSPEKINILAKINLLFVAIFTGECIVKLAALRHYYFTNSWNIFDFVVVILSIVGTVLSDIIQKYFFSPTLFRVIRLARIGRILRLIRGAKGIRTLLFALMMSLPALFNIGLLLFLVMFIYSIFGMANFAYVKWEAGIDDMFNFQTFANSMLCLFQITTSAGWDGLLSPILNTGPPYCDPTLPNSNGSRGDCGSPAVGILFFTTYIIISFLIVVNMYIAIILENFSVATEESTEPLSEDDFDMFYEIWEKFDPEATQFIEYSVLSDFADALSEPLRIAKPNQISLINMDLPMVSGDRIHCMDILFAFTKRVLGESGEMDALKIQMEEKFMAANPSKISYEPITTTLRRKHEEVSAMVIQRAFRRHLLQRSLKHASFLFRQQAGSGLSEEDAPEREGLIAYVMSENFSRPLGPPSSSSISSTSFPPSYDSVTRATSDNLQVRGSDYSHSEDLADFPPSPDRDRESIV

One may read the IC50 as the concentration that inhibits the measured activity by half. Regarding `CN(c1cc(F)c(S(=O)(=O)Nc2cscn2)cc1Cl)[C@H]1CCN(C2Cc3ccccc3C2)C1` [Example 166, (S)-5-chloro-4-((1-(2,3-dihydro-1H-inden-2-yl)pyrrolidin-3-yl)(methyl)amino)-2-fluoro-N-(thiazol-4-yl)benzene-sulfonamide formate], the results for the half-inhibitory concentration (IC50) on NaV1.5, at NaV1.1 and at NaV1.6 were 10.1 µM, 7.79 µM and 3.67 µM, respectively.

In the case of `Cc1ccc(CN2CC[C@H](N(C)c3cc(F)c(S(=O)(=O)Nc4cscn4)cc3Cl)C2)c(F)c1` [Example 167, (S)-5-chloro-2-fluoro-4-((1-(2-fluoro-4-methylbenzyl)pyrrolidin-3-yl)(methyl)amino)-N-(thiazol-4-yl)benzene-sulfonamide], the results for the IC50 on NaV1.5, on NaV1.1 and on NaV1.6 were 8.85 µM, 6.44 µM and 1.69 µM, respectively.

On to `CN(c1cc(F)c(S(=O)(=O)Nc2cscn2)cc1Cl)[C@H]1CCN(Cc2cccc(OC(F)F)c2)C1` [Example 168, (S)-5-chloro-4-((1-(3-(difluoromethoxy)benzyl)-pyrrolidin-3-yl)(methyl)amino)-2-fluoro-N-(thiazol-4-yl)benzene-sulfonamide formate], for which the IC50 on NaV1.5 came out at 5.89 µM; against NaV1.1, 4.17 µM; on NaV1.6, 2.02 µM.

In the case of `CN(c1cc(F)c(S(=O)(=O)Nc2cscn2)cc1Cl)[C@H]1CCN(Cc2c(F)cccc2Cl)C1` [Example 169, (S)-5-chloro-4-((1-(2-chloro-6-fluorobenzyl)pyrrolidin-3-yl)(methyl)amino)-2-fluoro-N-(thiazol-4-yl)benzene-sulfonamide 2,2,2-trifluoroacetate], the IC50 at NaV1.5 was found to be 5.27 µM; on NaV1.1, 4.62 µM; on NaV1.6, 0.821 µM.

Consider `CCCc1ccc(CN2CC[C@H](N(C)c3cc(F)c(S(=O)(=O)Nc4cscn4)cc3Cl)C2)cc1` [Example 171, (S)-5-chloro-2-fluoro-4-(methyl(1-(4-propylbenzyl)-pyrrolidin-3-yl)amino)-N-(thiazol-4-yl)benzene-sulfonamide], for which the IC50 came to 4.96 µM at NaV1.5, 2.35 µM against NaV1.1 and 1.86 µM on NaV1.6.

As to `Cc1ccc(F)c(CN2CC[C@H](N(C)c3cc(F)c(S(=O)(=O)Nc4cscn4)cc3Cl)C2)c1` [Example 172, (S)-5-chloro-2-fluoro-4-((1-(2-fluoro-5-methylbenzyl)-pyrrolidin-3-yl)(methyl)amino)-N-(thiazol-4-yl)benzene-sulfonamide 2,2,2-trifluoroacetate], the IC50 is 4.97 µM at NaV1.5, 5.45 µM against NaV1.1 and 0.432 µM on NaV1.6.

`COc1ccc(F)c(CN2CC[C@H](N(C)c3cc(F)c(S(=O)(=O)Nc4cscn4)cc3Cl)C2)c1` [Example 173, (S)-5-chloro-2-fluoro-4-((1-(2-fluoro-5-methoxybenzyl)-pyrrolidin-3-yl)(methyl)amino)-N-(thiazol-4-yl)benzene-sulfonamide 2,2,2-trifluoroacetate]: the concentration for half-maximal inhibition (IC50) on NaV1.5 stood at 9.86 µM; against NaV1.1, 8.75 µM; on NaV1.6, 3.34 µM.

Take `COC(=O)c1cccc(CN2CC[C@H](N(C)c3cc(F)c(S(=O)(=O)Nc4cscn4)cc3Cl)C2)c1` [Example 174, methyl (S)-3-((3-((2-chloro-5-fluoro-4-(N-(thiazol-4-yl)sulfamoyl)-phenyl)(methyl)-amino)pyrrolidin-1-yl)methyl)benzoate]: the figures for the IC50 on NaV1.5, against NaV1.1 and at NaV1.6 were 16.2 µM, 10.2 µM and 9.16 µM, respectively.

As to `CN(c1cc(F)c(S(=O)(=O)Nc2cscn2)cc1Cl)[C@H]1CCN(CCC(C)(C)C)C1` [Example 175, (S)-5-chloro-4-((1-(3,3-dimethylbutyl)-pyrrolidin-3-yl)(methyl)amino)-2-fluoro-N-(thiazol-4-yl)benzene-sulfonamide 2,2,2-trifluoroacetate], the IC50 is more than 30 µM at NaV1.5, 13.2 µM against NaV1.1 and 2.55 µM at NaV1.6.

With `CC(C)Oc1cccc(CN2CC[C@H](N(C)c3cc(F)c(S(=O)(=O)Nc4cscn4)cc3Cl)C2)c1` [Example 177, (S)-5-chloro-2-fluoro-4-((1-(3-isopropoxybenzyl)-pyrrolidin-3-yl)(methyl)amino)-N-(thiazol-4-yl)benzene-sulfonamide compound with triethylamine (1:0.35)], the IC50 on NaV1.5 is 7.52 µM; against NaV1.1 it was 3.91 µM; at NaV1.6, 3.15 µM.

For the molecule `CN(c1cc(F)c(S(=O)(=O)Nc2cscn2)cc1Cl)[C@H]1CCN(Cc2cccc(Br)n2)C1` [Example 178, (S)-4-((1-((6-bromopyridin-2-yl)methyl)pyrrolidin-3-yl)(methyl)amino)-5-chloro-2-fluoro-N-(thiazol-4-yl)benzene-sulfonamide], the values for the IC50 at NaV1.5, on NaV1.1 and at NaV1.6 were 16 µM, 12.9 µM and 1.09 µM, respectively.

For `CN(c1cc(F)c(S(=O)(=O)Nc2cscn2)cc1Cl)[C@H]1CCN(Cc2ccc(F)cc2)C1` [Example 180, (S)-5-chloro-2-fluoro-4-((1-(4-fluorobenzyl)-pyrrolidin-3-yl)(methyl)amino)-N-(thiazol-4-yl)benzene-sulfonamide], the IC50 came to 25.4 µM at NaV1.5, 16.8 µM at NaV1.1 and 5.29 µM on NaV1.6.

Consider `CN(c1cc(F)c(S(=O)(=O)Nc2cscn2)cc1Cl)[C@H]1CCN(Cc2cccn2C)C1` [Example 181, (S)-5-chloro-2-fluoro-4-(methyl(1-((1-methyl-1H-pyrrol-2-yl)methyl)pyrrolidin-3-yl)amino)-N-(thiazol-4-yl)benzene-sulfonamide], for which the results for the half-maximal inhibitory concentration (IC50) at NaV1.5, at NaV1.1 and on NaV1.6 were more than 30 µM, more than 30 µM and 3.15 µM, respectively.

Consider `CN(c1cc(F)c(S(=O)(=O)Nc2cscn2)cc1Cl)[C@H]1CCN(Cc2c[nH]c3ccccc23)C1` [Example 182, (S)-4-((1-((1H-indol-3-yl)methyl)pyrrolidin-3-yl)(methyl)amino)-5-chloro-2-fluoro-N-(thiazol-4-yl)benzene-sulfonamide 2,2,2-trifluoroacetate], for which the IC50 on NaV1.5 worked out at 9.86 µM; on NaV1.1, 9.41 µM; at NaV1.6 it was 0.877 µM.

As for `CN(c1cc(F)c(S(=O)(=O)Nc2cscn2)cc1Cl)[C@H]1CCN(Cc2ccn(C)n2)C1` [Example 183, (S)-5-chloro-2-fluoro-4-(methyl(1-((1-methyl-1H-pyrazol-3-yl)methyl)pyrrolidin-3-yl)amino)-N-(thiazol-4-yl)benzene-sulfonamide], the values for the half-maximal inhibitory concentration (IC50) at NaV1.5, on NaV1.1 and at NaV1.6 were more than 30 µM, more than 30 µM and 6.93 µM, respectively.

`CN(c1cc(F)c(S(=O)(=O)Nc2cscn2)cc1Cl)[C@H]1CCN(Cc2ncc3ccccn23)C1` [Example 184, (S)-5-chloro-2-fluoro-4-((1-(imidazo[1,5-a]pyridin-3-ylmethyl)pyrrolidin-3-yl)(methyl)amino)-N-(thiazol-4-yl)benzene-sulfonamide]: the IC50 at NaV1.5 was more than 30 µM; at NaV1.1, more than 30 µM; on NaV1.6, 5.38 µM.

Regarding `CN(c1cc(F)c(S(=O)(=O)Nc2cscn2)cc1Cl)[C@H]1CCN(Cc2ccnc(C(F)(F)F)c2)C1` [Example 185, (S)-5-chloro-2-fluoro-4-(methyl(1-((2-(trifluoromethyl)-pyridin-4-yl)methyl)pyrrolidin-3-yl)amino)-N-(thiazol-4-yl)benzene-sulfonamide], the IC50 came out at 22.4 µM on NaV1.5, 8.81 µM against NaV1.1 and 7.02 µM on NaV1.6.
